Test results published in the supplement of paper PMC10307832.

Columns and labels:
Assay in all cases: relative viability (nuclei count vs DMSO), 5 days (fraction); higher = more cells survive
Bemcentinib + Luminespib = compound: Nc1nc(Nc2ccc3c(c2)CC[C@@H](N2CCCC2)CC3)nn1-c1cc2c(nn1)-c1ccccc1CCC2 [Bemcentinib] + CCNC(=O)c1noc(-c2cc(C(C)C)c(O)cc2O)c1-c1ccc(CN2CCOCC2)cc1 [Luminespib] (partner 0.01 µM)
In short: (§1)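 Lung cancer cell lines, seeded in 1536-well plates, were treated the following day by pin tool with a single drug or with five library-drug doses (not always all listed) in √10 steps on top of a fixed anchor-drug dose. Cells were fixed and nuclei stained in one step after 5 days, and nuclei were counted. Relative viability is the nuclei count for treated wells divided by that for vehicle wells, reported as medians of duplicate plates.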

Axitinib + Bortezomib = compound: CNC(=O)c1ccccc1Sc1ccc2c(/C=C/c3ccccn3)n[nH]c2c1 [Axitinib] + CC(C)C[C@H](NC(=O)[C@H](Cc1ccccc1)NC(=O)c1cnccn1)B(O)O [Bortezomib] (partner 0.002 µM)
In short: as §1

[1] = compound: CC1=CC=C(C=C1)C(=O)CN2C3=C(CCCC3)SC2=N [Pifithrin_alpha] + Nc1nc2[nH]cc(CCc3ccc(C(=O)N[C@@H](CCC(=O)O)C(=O)O)cc3)c2c(=O)[nH]1 [Pemetrexed] (partner 0.2 µM)
In short: as §1

Axitinib + Luminespib = compound: CNC(=O)c1ccccc1Sc1ccc2c(/C=C/c3ccccn3)n[nH]c2c1 [Axitinib] + CCNC(=O)c1noc(-c2cc(C(C)C)c(O)cc2O)c1-c1ccc(CN2CCOCC2)cc1 [Luminespib] (partner 0.01 µM)
In short: as §1

| Cell Line | relative viability (Bemcentinib + Luminespib; first compound 0.04 µM) | relative viability (Bemcentinib + Luminespib; first compound 0.1265 µM) | relative viability (Bemcentinib + Luminespib; first compound 0.4 µM) | relative viability (Bemcentinib + Luminespib; first compound 1.265 µM) | relative viability (Bemcentinib + Luminespib; first compound 4 µM) | relative viability (Axitinib + Bortezomib; first compound 0.005 µM) | relative viability (Axitinib + Bortezomib; first compound 0.01581 µM) | relative viability (Axitinib + Bortezomib; first compound 0.05 µM) | relative viability (Axitinib + Bortezomib; first compound 0.1581 µM) | relative viability (Axitinib + Bortezomib; first compound 0.5 µM) | relative viability ([1]; first compound 1 µM) | relative viability ([1]; first compound 3.162 µM) | relative viability ([1]; first compound 10 µM) | relative viability ([1]; first compound 31.62 µM) | relative viability ([1]; first compound 100 µM) | relative viability (Axitinib + Luminespib; first compound 0.005 µM) | relative viability (Axitinib + Luminespib; first compound 0.01581 µM) | relative viability (Axitinib + Luminespib; first compound 0.05 µM) | relative viability (Axitinib + Luminespib; first compound 0.1581 µM) | relative viability (Axitinib + Luminespib; first compound 0.5 µM) |
| --- | --- | --- | --- | --- | --- | --- | --- | --- | --- | --- | --- | --- | --- | --- | --- | --- | --- | --- | --- | --- |
| HCC-15 | 0.326 | 0.485 | 0.293 | 0.253 | 0.235 | 1.08 | 0.995 | 1.01 | 0.988 | 1.06 | 0.225 | 0.206 | 0.207 | 0.206 | 0.209 | 0.306 | 0.325 | 0.307 | 0.301 | 0.338 |
| HCC-44 | 1.05 | 1.4 | 1.02 | 1.06 | 1.05 | 0.925 | 0.859 | 0.855 | 0.89 | 1.01 | 0.56 | 0.584 | 0.667 | 0.519 | 0.574 | 1.07 | 1.07 | 0.484 | 1.04 | 1.35 |
| HCC-78 | – | – | – | – | – | 0.643 | 0.491 | 0.305 | 0.499 | 0.566 | – | 0.937 | 0.941 | 0.901 | 0.944 | – | – | – | – | – |
| HCC-366 | – | – | – | – | – | 0.977 | 0.994 | 1.11 | 1 | 1.13 | 0.158 | 0.154 | 0.139 | – | 0.133 | – | – | – | – | – |
| HCC-827 | 0.689 | 0.6 | 0.624 | 0.742 | 0.589 | 1.11 | 1.06 | 1.04 | 1.02 | 1.15 | 0.251 | 0.256 | 0.27 | 0.239 | 0.205 | 0.599 | 0.514 | 0.325 | 0.728 | 0.459 |
| IA-LM | – | – | – | – | – | 1.17 | 0.775 | 0.899 | 0.846 | 0.728 | – | – | – | – | – | – | – | – | – | – |
| LK-2 | 0.218 | 0.167 | 0.151 | 0.172 | 0.182 | – | – | – | – | – | 0.188 | 0.288 | 0.244 | – | 0.327 | 0.185 | 0.146 | 0.19 | 0.185 | 0.18 |
| NCI-H358 | 0.319 | 0.335 | 0.303 | 0.247 | 0.369 | – | – | – | – | – | 0.17 | 0.192 | 0.158 | 0.149 | 0.145 | 0.478 | 0.364 | 0.436 | 0.338 | 0.325 |
| NCI-H522 | 0.95 | 1.15 | 1.16 | 1.21 | 1.06 | – | – | – | – | – | 0.805 | 0.978 | 1.02 | 0.796 | 1.05 | 1.28 | 1.18 | 1.02 | 0.998 | 1.02 |
| NCI-H727 | 0.352 | 0.383 | 0.268 | 0.29 | 0.303 | 1.1 | 0.854 | 1 | 0.868 | 0.795 | – | – | – | – | – | 0.325 | 0.276 | 0.345 | 0.346 | 0.278 |
| NCI-H1299 | – | – | – | – | – | 1.05 | 0.989 | 1.07 | 0.976 | 1.06 | – | – | – | – | – | – | – | – | – | – |
| NCI-H1395 | 0.611 | 0.733 | 0.808 | 0.686 | 1 | – | – | – | – | – | – | 0.897 | 0.907 | – | 0.908 | 0.8 | 0.76 | 0.838 | 0.609 | 0.586 |
| NCI-H1623 | 0.498 | 0.547 | 0.588 | 0.481 | 0.467 | – | – | – | – | – | – | – | – | – | – | 0.519 | 0.602 | 0.444 | 0.538 | 0.481 |
| NCI-H1648 | – | – | – | – | – | – | – | – | – | – | 0.805 | 0.49 | 0.924 | 0.655 | 0.671 | – | – | – | – | – |
| NCI-H1703 | – | – | – | – | – | 0.353 | 0.228 | 0.161 | 0.212 | 0.207 | – | – | – | – | – | – | – | – | – | – |
| NCI-H1793 | 0.211 | 0.179 | 0.169 | – | 0.18 | – | – | – | – | – | 0.538 | 0.79 | 0.888 | 0.671 | 0.695 | 0.148 | 0.23 | 0.16 | 0.187 | 0.169 |
| NCI-H1944 | 0.735 | 0.836 | 0.791 | 0.705 | 0.758 | – | – | – | – | – | 0.562 | 0.55 | 0.59 | 0.457 | 0.512 | 0.755 | 0.726 | 0.717 | 0.738 | 0.769 |
| NCI-H2170 | 0.568 | 0.923 | 0.649 | 0.809 | 0.869 | – | – | – | – | – | 0.279 | 0.296 | 0.3 | 0.234 | 0.255 | 0.718 | 0.639 | 0.743 | 0.647 | 0.688 |
| NCI-H2342 | 0.689 | 0.762 | 0.679 | 0.83 | 0.794 | – | – | – | – | – | 0.628 | 0.741 | 0.729 | 0.855 | 0.782 | 0.896 | 0.763 | 0.59 | 0.756 | 0.726 |
| SK-MES-1 | 0.456 | 0.742 | 0.786 | 0.761 | 1.07 | – | – | – | – | – | 0.84 | 0.845 | 0.863 | 0.494 | 0.623 | 0.774 | 0.781 | 0.746 | 0.766 | 0.825 |
| SW 900 | 0.169 | 0.203 | 0.174 | 0.156 | 0.17 | – | – | – | – | – | 0.493 | 0.509 | 0.499 | 0.503 | 0.371 | 0.167 | 0.162 | 0.159 | 0.185 | 0.18 |
